Values of other authors as cited in US8128958B2, “Sustained release pharmaceutical composition” (Astellas Pharma Inc., priority 2003, dated 2012).
Where a name gives a salt, the structure may show the parent alone.

What was measured:
[1] = not given; remark: listed apart in the source

CCOc1ccccc1OCCN[C@H](C)Cc1ccc(OC)c(S(N)(=O)=O)c1 [tamsulosin hydrochloride, (R)(−)-5-[2-[[2-(o-ethoxyphenoxy)ethyl]-amino]propyl]-2-methoxybenzenesulfonamide]
Cmax and AUC versus dose (0.1 to 0.6 mg orally, healthy adult volunteers): increased almost in proportion to the dose administered
day on which plasma concentration profiles reached the steady state (repeatedly administered per os for seven days): 4 days
adverse reactions (including abnormal clinical data) presumably related to the agent ([1]; 104 cases among 4724 cases, research in use upon approval and post marketing surveillance in Japan): 2.2%
frequency of hypotension, postural hypotension, blood pressure, tachycardia and palpitation ([1]; package insert, circulatory area): less than 0.1%
frequency of orthostatic syncope, headache and sleepiness ([1]; package insert, psychoneural area): less than 0.1%
